IC50 data for 16 compounds are collected here from US7473711B2, “Androgen modulators” (Pfizer Inc., priority 2004, dated 2009).

Test [1] concerns the target T1, hAR (human androgen receptor) (Homo sapiens, UniProt P10275).
T1 construct: made in house; host or cells: baculovirus/Sf9 insect cells (extract)
T1 sequence (P10275 1-920): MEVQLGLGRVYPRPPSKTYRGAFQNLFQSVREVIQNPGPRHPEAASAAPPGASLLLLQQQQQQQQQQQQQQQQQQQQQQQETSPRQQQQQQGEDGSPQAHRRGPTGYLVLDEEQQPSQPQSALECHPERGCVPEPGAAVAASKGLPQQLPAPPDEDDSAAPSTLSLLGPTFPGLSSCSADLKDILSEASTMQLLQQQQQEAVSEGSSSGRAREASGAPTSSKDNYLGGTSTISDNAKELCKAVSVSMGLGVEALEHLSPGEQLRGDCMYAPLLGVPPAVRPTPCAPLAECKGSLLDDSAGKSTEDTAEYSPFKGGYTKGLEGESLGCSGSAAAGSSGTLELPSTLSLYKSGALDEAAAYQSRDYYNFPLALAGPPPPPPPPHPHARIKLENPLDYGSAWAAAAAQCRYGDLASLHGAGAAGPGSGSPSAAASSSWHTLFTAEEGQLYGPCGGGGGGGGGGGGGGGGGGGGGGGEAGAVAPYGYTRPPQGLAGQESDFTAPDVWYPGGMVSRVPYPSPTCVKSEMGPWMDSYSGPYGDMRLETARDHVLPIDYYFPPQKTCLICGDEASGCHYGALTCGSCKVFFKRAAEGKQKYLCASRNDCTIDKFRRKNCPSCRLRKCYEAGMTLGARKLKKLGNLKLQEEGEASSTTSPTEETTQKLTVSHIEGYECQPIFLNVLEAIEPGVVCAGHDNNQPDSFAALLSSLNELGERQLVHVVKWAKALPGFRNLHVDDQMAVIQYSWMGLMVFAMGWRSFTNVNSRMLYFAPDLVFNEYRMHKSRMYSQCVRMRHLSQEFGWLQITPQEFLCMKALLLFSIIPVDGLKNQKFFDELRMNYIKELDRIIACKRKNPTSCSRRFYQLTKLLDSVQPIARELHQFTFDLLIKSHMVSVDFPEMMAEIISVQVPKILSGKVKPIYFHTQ
Nature of the test: Competitive binding analysis on hAR extracts with 3H-DHT tracer. As to the method: The compounds of Formula I have affinity for the androgen receptor. […] The description below describes how the assay was carried out.
Competitive binding analysis was performed on baculovirus/Sf9 generated hAR extracts in the presence or absence of different concentrations of test agent and a fixed concentration of ^3H-dihydrotestosterone (^3H-DHT) as tracer. This binding assay method is a modification of a protocol previously described (Liao S., et. al. J. Steroid Biochem. 20:11-17 1984). Briefly, progressively decreasing concentrations of compounds are incubated in the presence of hAR extract (Chang et al. P.N.A.S. Vol. 89, pp. […], 1992), hydroxylapatite, and 1 nM ^3H-DHT for one hour at 4° C. Subsequently, the binding reactions are washed three times to completely remove excess unbound ^3H-DHT. hAR bound ^3H-DHT levels are determined in the presence of compounds (i.e. competitive binding) and compared to levels bound when no competitor is present (i.e. maximum binding). Compound binding affinity to the hAR is expressed as the concentration of compound at which one half of the maximum binding is inhibited. Table II below provides the results that were obtained for selected compounds (reported data is the mean of multiple tests as shown below)

Test [2] deals with T2, androgen receptor in MDA-MB453-MMTV clone 54-19 cells (Homo sapiens, UniProt P10275).
T2 sequence (P10275 1-920 Q868H): T1 sequence (P10275 1-920) with Q868H
As to the kind of experiment: AR antagonist cell assay (MMTV-luciferase reporter, 100 pM DHT). The class given is cell-based. As to the method: The compounds ability to antagonize the effects of androgen on the androgen receptor were determined in a whole cell assay as described immediately below.
Experimental Procedure for AR Antagonist Cell Assay
Cell line: MDA-MB453-MMTV clone 54-19. This cell line is a stable transfected cell line with MDA-MB453 cell background (a human breast tumor cell line expressing androgen receptor). A MMTV minimal promoter containing ARE was first cloned in front of a firefly luciferase reporter gene. Then the cascade was cloned into transfection vector pUV120puro. Electroporation method was used for transfecting MDA-MB-453 cell. Puromycin resistant stable cell line was selected. Cell Culture Media and Reagents:
Culture medium: DMEM (high glucose, Gibco cat #: 11960-044), 10% FBS, and 1% L-glutamine
Plating medium: DMEM (phenol red free), 10% charcoal treated HyClone serum, 1% L-glutamine
Assay medium: DMEM (phenol red free), 1% charcoal treated HyClone serum, 1% L-glutamine, and 1% penicillin/streptomycin
3X luciferase buffer: 2% beta-mercaptoethanol, 0.6% ATP, 0.0135% luciferine in cell lysis buffer
• 1. Cells are maintained in culture medium, splitting cells when they reach 80-90% confluence • 2. To test compounds, 10,000 cells/well are plated to opaque 96 cell culture plate in 100 ul/well plating medium, culture for overnight at 37° C. in cell culture incubator • 3. Carefully remove plating medium, then add 80 ul/well of pre-warmed assay medium, add 10 ul/well testing compound (final concentration at) 1000 nM, 200 nM, 40 nM, 8 nM, 1.6 nM, and 0.32 nM), incubate at 37° C. for 30 minutes • 4. Add 10 ul/well freshly prepared DHT (final concentration at 100 pM) to each well, incubate at 37° C. for 17 hr (overnight) • 5. Add 50 ul/well 3X luciferase buffer, incubate at room temperature for 5 minutes, then count on Luminometer
The fold induction over background by 100 pM DHT in the absence of testing compounds is standardized as 100% and experimental result is expressed as percentage of inhibition by testing compounds.
The results are reported as the mean of multiple tests as described below (the numbers of tests are indicated in the footnote). N.D. denotes that the compound was not tested.

[3] abbreviates: read-out: AR Cell IC50; MDA-MB453-MMTV clone 54-19, inhibition of 100 pM DHT induced luciferase, 17 hr; mean of multiple tests.
The mark [4] stands for this setting: baculovirus/Sf9 hAR extract, 1 nM 3H-DHT, one hour at 4° C, mean of multiple tests, read-out: AR Binding IC50.
The mark [5] stands for this setting: MDA-MB453-MMTV clone 54-19, inhibition of 100 pM DHT induced luciferase, 17 hr; mean of multiple tests; read-out: AR Cell IC50.

Residue numbers refer to the chain shown, from its start. Like-named read-outs stand apart in the source and are kept apart here.

For the compound `C[C@@H](Oc1ccc(C#N)c(C(F)(F)F)c1)[C@@H](C)Oc1ccc(C#N)c(C(F)(F)F)c1` [Example 2, 4,4′-[(2R,3R)-Butane-2,3-diylbis(oxy)]bis[2-(trifluoromethyl)benzonitrile]], the IC50 in test [1] was determined as 34 nM; in test [2] (setting [3]), 67 nM.

As to `CC(CCC(C)Oc1ccc(C#N)c(C(F)(F)F)c1)Oc1ccc(C#N)c(C(F)(F)F)c1` (stereo not shown) [Example 22, 4,4′-[Hexane-2,5-diylbis(oxy)]bis[2-(trifluoromethyl)benzonitrile]], the results for the IC50 in test [1] (setting [4]) and in test [2] (setting [5]) were 293 nM and 322 nM, respectively. As for `COC[C@@H](COc1ccccc1)Oc1ccc(C#N)c(C(F)(F)F)c1` [Example 31, (1S)-4-(1-Methoxymethyl-2-phenoxy-ethoxy)-2-trifluoromethyl-benzonitrile], the results for the half-inhibitory concentration (IC50) in test [1] and in test [2] (setting [5]) were 46 nM and 126 nM, respectively. With `C[C@H](Oc1ccc(C#N)c(C(F)(F)F)c1)[C@H](C)Oc1ccc(C#N)c(C(F)(F)F)c1` [Example 1, 4,4′-[(2S,3S)-Butane-2,3-diylbis(oxy)]bis[2-(trifluoromethyl)benzonitrile]], the half-inhibitory concentration (IC50) was determined as 191 nM in test [1] (setting [4]) and 531 nM in test [2] (setting [5]).

For the compound `CC(C)CCCC(COc1ccc(C#N)c(C(F)(F)F)c1)Oc1ccc(C#N)c(C(F)(F)F)c1` (stereo not shown) [Example 8], the IC50 in test [1] (setting [4]) is 967 nM; in test [2] (setting [5]), greater than 1000 nM. For the compound `COCC(COc1ccc(C#N)c(C(F)(F)F)c1)Oc1ccc(C#N)c(C(F)(F)F)c1` (stereo not shown) [Example 5, 4,4′-[(3-Methoxypropane-1,2-diyl)bis(oxy)]bis[2-(trifluoromethyl)benzonitrile]], the values for the concentration for half-maximal inhibition (IC50) in test [1] and in test [2] (setting [5]) were 56 nM and 187 nM, respectively. As for `CCOCC(COc1ccc(C#N)c(C(F)(F)F)c1)Oc1ccc(C#N)c(C(F)(F)F)c1` (stereo not shown) [Example 6, 4,4′-[(3-Ethoxypropane-1,2-diyl)bis(oxy)]bis[2-(trifluoromethyl)benzonitrile]], the IC50 in test [1] (setting [4]) is 124 nM; in test [2] (setting [5]), greater than 1000 nM. Take `CCCC(COc1ccc(C#N)c(C(F)(F)F)c1)Oc1ccc(C#N)c(C(F)(F)F)c1` (stereo not shown) [Example 4, 4,4′-[Pentane-1,2-diylbis(oxy)]bis[2-(trifluoromethyl)benzonitrile]]: the figures for the IC50 in test [1] (setting [4]) and in test [2] (setting [5]) were 630 nM and greater than 1000 nM, respectively. Regarding `CC(CCC(C)Oc1ccc(C#N)c(C(F)(F)F)c1)Oc1ccc(C#N)c(C(F)(F)F)c1` (stereo in doubt) [Example 23, 4,4′-[(2S,5S)-Hexane-2,5-diylbis(oxy)]bis[2-(trifluoromethyl)benzonitrile]], the values for the half-maximal inhibitory concentration (IC50) in test [1] (setting [4]) and in test [2] (setting [5]) were 180 nM and 202 nM, respectively.

As to `CC(CCCCOc1ccc(C#N)c(C(F)(F)F)c1)Oc1ccc(C#N)c(C(F)(F)F)c1` (stereo not shown) [Example 25, 4,4′-[Hexane-1,5-diylbis(oxy)]bis[2-(trifluoromethyl)benzonitrile]], the half-maximal inhibitory concentration (IC50) in test [1] (setting [4]) is 159 nM; in test [2] (setting [5]) it was greater than 1000 nM.

In the case of `CC(CCOc1ccc(C#N)c(C(F)(F)F)c1)CCOc1ccc(C#N)c(C(F)(F)F)c1` [Example 26, 4,4′-[(3-Methylpentane-1,5-diyl)bis(oxy)]bis[2-(trifluoromethyl)benzonitrile]], the IC50 came to 156 nM in test [1] (setting [4]) and 212 nM in test [2] (setting [5]). For `CC(CCOc1ccc(C#N)c(C(F)(F)F)c1)Oc1ccc(C#N)c(C(F)(F)F)c1` (stereo not shown) [Example 13, 4,4′-[Butane-1,3-diylbis(oxy)]bis[2-(trifluoromethyl)benzonitrile]], the figures for the half-maximal inhibitory concentration (IC50) in test [1] and in test [2] (setting [3]) were 10 nM and 100 nM, respectively. Turning to `N#Cc1ccc(O[C@H](CO)COc2ccccc2)cc1C(F)(F)F` [Example 29, (1R)-4-(1-Hydroxymethyl-2-phenoxy-ethoxy)-2-trifluoromethyl-benzonitrile], the IC50 in test [1] is 44 nM; in test [2] (setting [5]) it was 117 nM. `CC(COc1ccc(C#N)c(C(F)(F)F)c1)COc1ccc(C#N)c(C(F)(F)F)c1` [Example 12, 4,4′-[(2-Methylpropane-1,3-diyl)bis(oxy)]bis[2-(trifluoromethyl)benzonitrile]]: the IC50 was 233 nM in test [1] (setting [4]) and greater than 1000 nM in test [2] (setting [5]). Turning to `CC(COc1ccc(C#N)c(C(F)(F)F)c1)C(C)Oc1ccc(C#N)c(C(F)(F)F)c1` (stereo not shown) [Example 16, 4-{3-[4-Cyano-3-(trifluoromethyl)phenoxy]-1,2-dimethylpropoxy}-2-(trifluoromethyl)benzonitrile], the 50% inhibitory concentration (IC50) in test [1] (setting [4]) was 372 nM.

Take `C[C@@H](C[C@H](C)Oc1ccc(C#N)c(C(F)(F)F)c1)Oc1ccc(C#N)c(C(F)(F)F)c1` (stereo in doubt) [Example 20, 4,4′-[(2S,4S)-Pentane-2,4-diylbis(oxy)]bis[2-(trifluoromethyl)benzonitrile]]: the results for the half-maximal inhibitory concentration (IC50) in test [1] and in test [2] (setting [5]) were 17 nM and 159 nM, respectively.
